Data: patent publication US8039501B2, “Synephrine derivatives useful as anti-inflammatory agents” (Universiteit Gent, priority 2005, dated 2011)

Key:
[1] = tested on: pE-selectin-Luc (E-selectin promoter); assay: pE-selectin-Luc reporter gene assay in TNF-induced L929sA cells; assay type: cell-based, mouse; conditions: 10 microM; TNF-induced; FIG. 1
Source text: L929sA mouse fibroblast cells were stably transfected with pE-selectine-Luc (also referred to as pELAM-luc) by the calcium phosphate precipitation procedure described by De Bosscher et al. in Proc. Natl. Acad. Sci. USA (1997) 94, 13504-13509. The co-transfected plasmid pPGKβGeobpA, conferring resistance to G418 and expressing constitutive β-galactosidase enzymatic activity, was used as an internal control. L929sA cells were transiently transfected by the DEAE-dextran transfection method described by De Bosscher et al. (cited supra).
Recombinant murine tumor necrosis factor (TNF) was produced according to a method standard in the art. Dexamethasone (hereinafter abbreviated as DEX) commercially available from Sigma, and 2-(4-acetoxyphenyl)-2-chloro-N-methyl-ethylammonium chloride (hereinafter abbreviated as compound A) was synthesized according to Louw et al. in Biochemical Pharmacology (1997) 53, 189-197). A stock solution was prepared in ethanol (for DEX) or DMSO (for both comparative compound A and for the compound of example 6 according to this invention, i.e. 1-[4-(benzoyloxy)phenyl]-2-[(tert-butoxy-carbonyl)-methylamino]ethyl-1H-imidazole-1-carboxylate), aliquoted and stored at −70° C.
Induction was performed in triplicate for each independent experiment, which was carried out at least twice. Induction with DEX, compound A, and for the compound of example 6 according to this invention at 1 μM, 10 μM or respectively any other indicated concentration were performed at −2 hours for a total of 8 hours, while TNF (2000 IU/ml) was added at time point zero and left on the cells for 6 hours. After induction, cells were lysed with a lysis buffer (commercially available from Tropix, Bedford, Massachussets) and samples were assayed according to the manufacturer's instructions (Promega Biotech).
In order to investigate whether the inhibitory effect of compound A or the compound of example 6 according to this invention is directed at the transcriptional level of NF-κB-driven genes, the NF-κB-dependent physiological promoter construct, pE-selectin-Luc stably integrated into L929sA cells, was tested. […] DEX-mediated and compound A-mediated inhibition of TNF-induced gene expression were used as controls (FIG. 1). In the appended figures, NI stands for non-induced (either in presence of solvent controls like ethanol or DMSO).

[2] = biological target: T1, glucocorticoid receptor (GR) (Homo sapiens, UniProt P04150); assay: Western blot of homologous down-regulation of GR in FLS; assay type: cell-based; conditions: 10 μM, 3, 6, 9 or 24 hours, FIG. 22A
T1 construct: endogenous in cells; host or cells: primary fibroblast-like synoviocytes from RA patients
T1 sequence (P04150 1-777): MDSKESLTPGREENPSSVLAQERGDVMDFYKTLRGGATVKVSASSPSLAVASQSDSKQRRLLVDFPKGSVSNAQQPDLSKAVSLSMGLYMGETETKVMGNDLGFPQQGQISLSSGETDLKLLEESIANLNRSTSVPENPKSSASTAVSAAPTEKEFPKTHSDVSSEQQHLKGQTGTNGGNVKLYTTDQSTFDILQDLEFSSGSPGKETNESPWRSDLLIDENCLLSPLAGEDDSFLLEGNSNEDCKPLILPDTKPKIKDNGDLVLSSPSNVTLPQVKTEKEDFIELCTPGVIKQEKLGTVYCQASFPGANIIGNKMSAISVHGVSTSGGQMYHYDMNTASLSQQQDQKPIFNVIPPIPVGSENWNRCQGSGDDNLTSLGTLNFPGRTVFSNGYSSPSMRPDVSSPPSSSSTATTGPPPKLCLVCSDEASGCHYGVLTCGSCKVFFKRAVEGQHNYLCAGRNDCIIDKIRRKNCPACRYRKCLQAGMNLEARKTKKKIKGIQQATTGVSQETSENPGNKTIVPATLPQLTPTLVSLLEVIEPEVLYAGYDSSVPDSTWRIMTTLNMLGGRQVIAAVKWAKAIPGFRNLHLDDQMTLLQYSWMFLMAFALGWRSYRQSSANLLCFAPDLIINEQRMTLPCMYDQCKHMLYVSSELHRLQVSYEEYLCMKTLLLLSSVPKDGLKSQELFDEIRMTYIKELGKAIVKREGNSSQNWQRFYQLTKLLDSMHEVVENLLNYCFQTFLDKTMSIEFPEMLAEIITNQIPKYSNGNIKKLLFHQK
Description: CpdA was synthesized as described previously. […] They were sacrificed and livers were isolated. […] Gene expression of HPRT was used for normalization. […] Gene expression of HPRT was used for normalization. […] Gene expression of HPRT was used for normalization. Statistical significance was determined by one way anova. […] Gene expression of HPRT was used for normalization. […] Gene expression of HPRT was used for normalization. Statistical significance was determined by one way anova. […] Statistical significance was determined with a Kruskal-Wallis test.
Western blot analysis was performed on total protein extracts with an anti-GR(H-300) antibody. The detection of ERK was used as a loading control. After 8 days of treatment liver samples were taken from the PBS, DEX (20 μg) or CpdA (300 μg) treated DBA/1 mice (FIG. 22B). Q-PCR was performed for the detection of GR in the different samples. Statistical significance was determined with a Mann-Whitney Test. FLS were pre-treated with solvent, DEX (1 μM) or CpdA (10 μM) for 1 hour (set-up 1) or 24 hours (set-up 2), as indicated in the figures. Afterwards, TNF (2000 units/ml) was added for 6 h. Western blot analysis was performed on total extracts with an anti-GR(H-300) antibody (FIG. 19A). Detection of ERK was used as a loading control. […] Statistical significance was determined by one way anova. […]

CNCC(Cl)c1ccc(OC(C)=O)cc1.Cl (centres unmarked) [CpdA, 2-(4-acetoxyphenyl)-2-chloro-N-methyl-ethylammonium chloride]
Inhibition of the expression of E-selectin [1]: inhibit the expression of E-selectin
Ligand-induced down-regulation of the glucocorticoid receptor (GR) [2]: does not evoke a ligand-induced down-regulation of the glucocorticoid receptor (GR)
